According to US9073928B2, “Tosylate salt of cyclopropanecarboxylic acid 4-(6-chloro-3-methyl-4, 10-dihydro-3H-2,3,4,9-tetrabenzo[f]azulene-9-carbonyl)-2-fluorobenzylamide” (Vantia Limited, priority 2010, dated 2015):
Converted amounts (≈) assume the structure as drawn.

Tests used:
[1] = Thermodynamic solubility in water (spectrophotometric method)
Description: (§1) A spectrophotometric method was used. Standards were prepared in methanol (including a methanol blank) and the absorbance measured at 260 and 270 nm, from which a calibration line was generated for each wavelength. The test compound was incubated with agitation in water at 37° C. for 24 h before removal of non-soluble material by centrifugation. The supernatant was analysed against the calibration lines (after subtraction of the water blank response) and the mean of the determinations at the two wavelengths was reported.

[2] = Oral availability: plasma exposure in rats after oral dosing of suspensions; format: in vivo; settings: rat, suspension in 0.5% HPMC, 10 mg/kg p.o.
Text: The plasma exposure in rats following dosing with the cyclopropanecarboxylic acid 4-(6-chloro-3-methyl-4,10-dihydro-3H-2,3,4,9-tetraazabenzo[f]azulene-9-carbonyl)-2-fluoro-benzylamide para-toluenesulphonate (“Tosylate”) has been examined in comparison with the corresponding free base, cyclopropanecarboxylic acid 4-(6-chloro-3-methyl-4,10-dihydro-3H-2,3,4,9-tetraazabenzo[f]azulene-9-carbonyl)-2-fluoro-benzylamide (“Free Base”).

[3] = target: T1, cloned human V1a receptor (Homo sapiens, UniProt P37288); test: In vitro functional calcium mobilisation assay (FLIPR), antagonist activity; format: cell-based; settings: read-out: mean fpKi (Human V1a) (converted)
T1 construct: expressed in transfected cells
Text: The ability of the tosylate salt of the invention to inhibit the vasopressin V1a receptor may be determined using the in vitro functional calcium mobilisation assay (FLIPR) described in PCT/DK2005/000540. This assay measures antagonist activity at a cloned human V1a receptor.

[4] = physchem; settings: 37 °C, water, thermodynamic from solid
Description: as §1

[5] = target: V1a vasopressin receptor (Homo sapiens, UniProt P37288); settings: dysmenorrhoea patients, oral; cited from earlier work
V1a vasopressin receptor, sequence (P37288 whole entry): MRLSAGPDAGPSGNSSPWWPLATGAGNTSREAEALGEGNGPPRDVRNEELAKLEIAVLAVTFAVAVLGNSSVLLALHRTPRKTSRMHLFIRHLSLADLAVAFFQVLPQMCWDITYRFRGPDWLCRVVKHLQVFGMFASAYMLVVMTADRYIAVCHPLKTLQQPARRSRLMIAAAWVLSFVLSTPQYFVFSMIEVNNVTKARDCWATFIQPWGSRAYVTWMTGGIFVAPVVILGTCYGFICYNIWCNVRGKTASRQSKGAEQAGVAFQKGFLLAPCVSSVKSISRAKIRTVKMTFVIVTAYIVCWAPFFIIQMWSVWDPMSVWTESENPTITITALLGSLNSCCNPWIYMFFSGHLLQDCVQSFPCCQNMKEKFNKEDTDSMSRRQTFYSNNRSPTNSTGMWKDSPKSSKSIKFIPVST

T1 sequence (P37288 whole entry): as above

With `Cc1ccc(S(=O)(=O)O)cc1.Cn1ncc2c1Nc1cc(Cl)ccc1N(C(=O)c1ccc(CNC(=O)C3CC3)c(F)c1)C2` [Tosylate, cyclopropanecarboxylic acid 4-(6-chloro-3-methyl-4,10-dihydro-3H-2,3,4,9-tetraazabenzo[f]azulene-9-carbonyl)-2-fluoro-benzylamide para-toluenesulphonate] as the molecule, how does the “Solubility in water relative to known free base” value [1] read?
Its value is 8 ×.

What about the solubility at 24 h ([1]; 37 °C, thermodynamic from solid) of the same molecule?
Its solubility at 24 h is 40 µg/mL.

And the AUC(0-t) ([2]; in vivo, po)?
The AUC(0-t) was 670 ng·h/mL.

And the Cmax ([2]; in vivo, po)?
The Cmax was 209 ng/mL.

What about the “Plasma exposure / absorption after oral dosing (in words)” value [2] of the same molecule?
The value was “significant improvements in plasma exposure”.

And the Ki [3]?
Its Ki is 3.16 nM.

For `Cn1ncc2c1Nc1cc(Cl)ccc1N(C(=O)c1ccc(CNC(=O)C3CC3)c(F)c1)C2` [Free base, cyclopropanecarboxylic acid 4-(6-chloro-3-methyl-4,10-dihydro-3H-2,3,4,9-tetraazabenzo[f]azulene-9-carbonyl)-2-fluoro-benzylamide, reference compound], which solubility at 24 h [4] is on record?
The solubility at 24 h was 5 µg/mL (≈ 11 µM).

With `COc1ccc(S(=O)(=O)N2c3ccc(Cl)cc3[C@](O)(c3ccccc3Cl)[C@@H]2C(=O)N2CCC[C@H]2C(N)=O)cc1OC` [SR49059] as the molecule, how does the “Pain and additional pain-killer use compared to placebo” value [5] read?
The value was “dose-related decrease in the amount of additional pain-killer taken”.
